Test results as given in paper PMC10746280, “Bacterial efflux pump modulators prevent bacterial growth in macrophages and under broth conditions that mimic the host environment” (mBio, 2023).

Experiments:
[1] = system: RAW 264.7 macrophages; assay: SAFIRE macrophage assay: host toxicity (adherent macrophage count, morphology); format: cell-based
Procedure, shortened: (§1)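 Compound or DMSO added 2 h after gentamicin-protected infection (MOI ~30, sifB::gfp SL1344) of RAW 264.7 cells and left to 18 h. Fixed cells imaged; intracellular GFP area per macrophage gives bacterial load, while retained adherent MitoTracker Red-stained macrophages define host toxicity.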

[2] = system: S. Typhimurium SL1344 (sifB::gfp) in RAW 264.7 macrophages; assay: SAFIRE macrophage assay: intracellular bacterial load (GFP signal within macrophages); format: cell-based, Salmonella enterica serotype Typhimurium; conditions: for IC50: Salmonella enterica, TYPHIMURIUM, RAW264.7, read-out: SAFIRE IC50
Procedure, shortened: as §1

[3] = 5 uM, 'Toxic' given instead of a score
[4] = 25 uM, 'Toxic' given instead of a score
[5] = 5 uM compound, n=1, DMSO solvent control = 100
[6] = 25 uM compound, n=1, DMSO solvent control = 100
[7] = 5 uM compound, n=1, DMSO solvent control = 98, rifampicin 2 μg/mL = 65
[8] = 25 uM compound, n=1, DMSO solvent control = 98, rifampicin 2 μg/mL = 65

OC(COc1ccc(Cl)c(Cl)c1)CN1CC2CCC(C1)O2 (centres unmarked) [CU226]
5 uM Avg Cell # Score ([1]; 5 uM): 108 | 25 uM Avg Cell # Score ([1]; 25 uM): 74 | 5 uM Avg Antibacterial Score [2, 3]: 102 | 25 uM Avg Antibacterial Score [2, 4]: 108

OC(COc1ccc(Cl)c(Cl)c1)CN1CCC2(CCO2)C1 (centres unmarked) [CU228]
5 uM Avg Cell # Score ([1]; 5 uM): 111 | 25 uM Avg Cell # Score ([1]; 25 uM): 102 | 5 uM Avg Antibacterial Score [2, 3]: 98 | 25 uM Avg Antibacterial Score [2, 4]: 58

OC(COc1ccc(Cl)c(Cl)c1)CN1CCC2(CCO2)CC1 (centres unmarked) [CU229]
5 uM Avg Cell # Score ([1]; 5 uM): 147 | 25 uM Avg Cell # Score ([1]; 25 uM): 141 | 5 uM Avg Antibacterial Score [2, 3]: 101 | 25 uM Avg Antibacterial Score [2, 4]: 83

NC1CCCN(CC(O)COc2ccc(Cl)c(Cl)c2)CC1 (centres unmarked) [CU230]
5 uM Avg Cell # Score ([1]; 5 uM): 134 | 25 uM Avg Cell # Score ([1]; 25 uM): 19 | 5 uM Avg Antibacterial Score [2, 3]: 34 | 25 uM Avg Antibacterial Score [2, 4]: Toxic

NC1CCCN(CC(O)COc2cc(Cl)cc(Cl)c2)CC1 (centres unmarked) [CU231]
5 uM Avg Cell # Score [1, 5]: 112 | 25 uM Avg Cell # Score [1, 6]: 19 | 5 uM Avg Antibacterial Score [2, 7]: 22 | 25 uM Avg Antibacterial Score [2, 8]: Toxic

NC1CCN(CC(O)COc2ccccc2C(F)(F)F)CC1 (centres unmarked) [CU233]
5 uM Avg Cell # Score [1, 5]: 128 | 25 uM Avg Cell # Score [1, 6]: 104 | 5 uM Avg Antibacterial Score [2, 7]: 47 | 25 uM Avg Antibacterial Score [2, 8]: 34

OC(COc1cc(Cl)cc(Cl)c1)CN1CCC(n2ccnc2)CC1 (centres unmarked) [CU234]
5 uM Avg Cell # Score [1, 5]: 134 | 25 uM Avg Cell # Score [1, 6]: 108 | 5 uM Avg Antibacterial Score [2, 7]: 40 | 25 uM Avg Antibacterial Score [2, 8]: 12

CC1(N)CCN(CC(O)COc2ccc(Cl)c(Cl)c2)CC1 (centres unmarked) [CU235]
5 uM Avg Cell # Score [1, 5]: 125 | 25 uM Avg Cell # Score [1, 6]: 84 | 5 uM Avg Antibacterial Score [2, 7]: 20 | 25 uM Avg Antibacterial Score [2, 8]: 14

OC(CN[C@H]1[C@@H]2CNC[C@@H]21)COc1ccc(Cl)c(Cl)c1 (some centres unmarked) [CU236]
5 uM Avg Cell # Score [1, 5]: 121 | 25 uM Avg Cell # Score [1, 6]: 99 | 5 uM Avg Antibacterial Score [2, 7]: 53 | 25 uM Avg Antibacterial Score [2, 8]: 18

N[C@@H]1CCN(C[C@H](O)COc2ccc(Cl)c(Cl)c2)C1 [CU237]
5 uM Avg Cell # Score [1, 5]: 125 | 25 uM Avg Cell # Score [1, 6]: 107 | 5 uM Avg Antibacterial Score [2, 7]: 34 | 25 uM Avg Antibacterial Score [2, 8]: 11 | IC50 [2]: 8.2 nM

N[C@H]1CCN(C[C@H](O)COc2ccc(Cl)c(Cl)c2)C1 [CU238]
5 uM Avg Cell # Score [1, 5]: 126 | 25 uM Avg Cell # Score [1, 6]: 102 | 5 uM Avg Antibacterial Score [2, 7]: 34 | 25 uM Avg Antibacterial Score [2, 8]: 12

N[C@@H]1CCN(C[C@@H](O)COc2ccc(Cl)c(Cl)c2)C1 [CU239]
5 uM Avg Cell # Score [1, 5]: 129 | 25 uM Avg Cell # Score [1, 6]: 104 | 5 uM Avg Antibacterial Score [2, 7]: 25 | 25 uM Avg Antibacterial Score [2, 8]: 8 | IC50 [2]: 13.5 nM

N[C@H]1CCN(C[C@@H](O)COc2ccc(Cl)c(Cl)c2)C1 [CU240]
5 uM Avg Cell # Score [1, 5]: 118 | 25 uM Avg Cell # Score [1, 6]: 105 | 5 uM Avg Antibacterial Score [2, 7]: 29 | 25 uM Avg Antibacterial Score [2, 8]: 10 | IC50 [2]: 9.1 nM

NC1CCN(CC(COc2ccc(Cl)c(Cl)c2)OCc2ccccc2)CC1 (centres unmarked) [CU241]
5 uM Avg Cell # Score [1, 5]: 110 | 25 uM Avg Cell # Score [1, 6]: 6 | 5 uM Avg Antibacterial Score [2, 7]: 30 | 25 uM Avg Antibacterial Score [2, 8]: Toxic

COC(COc1ccc(Cl)c(Cl)c1)CN1CCC(N)CC1 (centres unmarked) [CU242]
5 uM Avg Cell # Score [1, 5]: 123 | 25 uM Avg Cell # Score [1, 6]: 109 | 5 uM Avg Antibacterial Score [2, 7]: 28 | 25 uM Avg Antibacterial Score [2, 8]: 9

CC1(N)CCN(CC(O)COc2cc(Cl)cc(Cl)c2)CC1 (centres unmarked) [CU243]
5 uM Avg Cell # Score [1, 5]: 129 | 25 uM Avg Cell # Score [1, 6]: 90 | 5 uM Avg Antibacterial Score [2, 7]: 21 | 25 uM Avg Antibacterial Score [2, 8]: 12

N[C@H]1CC[C@@H](NCC(O)COc2ccc(Cl)c(Cl)c2)CC1 (some centres unmarked) [CU245]
5 uM Avg Cell # Score [1, 5]: 122 | 25 uM Avg Cell # Score [1, 6]: 103 | 5 uM Avg Antibacterial Score [2, 7]: 66 | 25 uM Avg Antibacterial Score [2, 8]: 16

N[C@H]1CC[C@H](NCC(O)COc2ccc(Cl)c(Cl)c2)CC1 (some centres unmarked) [CU246]
5 uM Avg Cell # Score [1, 5]: 117 | 25 uM Avg Cell # Score [1, 6]: 106 | 5 uM Avg Antibacterial Score [2, 7]: 72 | 25 uM Avg Antibacterial Score [2, 8]: 19

OC(COc1cc(Cl)cc(Cl)c1)CN1CCCCC1 (centres unmarked) [CU247]
5 uM Avg Cell # Score [1, 5]: 118 | 25 uM Avg Cell # Score [1, 6]: 111 | 5 uM Avg Antibacterial Score [2, 7]: 93 | 25 uM Avg Antibacterial Score [2, 8]: 50

OC(COc1cc(Cl)cc(Cl)c1)CN1CCCC1 (centres unmarked) [CU248]
5 uM Avg Cell # Score [1, 5]: 115 | 25 uM Avg Cell # Score [1, 6]: 108 | 5 uM Avg Antibacterial Score [2, 7]: 93 | 25 uM Avg Antibacterial Score [2, 8]: 48

NCCC1CCN(CC(O)COc2ccc(Cl)c(Cl)c2)CC1 (centres unmarked) [CU249]
5 uM Avg Cell # Score [1, 5]: 123 | 25 uM Avg Cell # Score [1, 6]: 56 | 5 uM Avg Antibacterial Score [2, 7]: 17 | 25 uM Avg Antibacterial Score [2, 8]: Toxic

NCCC1CCN(CC(O)COc2cc(Cl)cc(Cl)c2)CC1 (centres unmarked) [CU250]
5 uM Avg Cell # Score [1, 5]: 115 | 25 uM Avg Cell # Score [1, 6]: 26 | 5 uM Avg Antibacterial Score [2, 7]: 20 | 25 uM Avg Antibacterial Score [2, 8]: Toxic

NCCC1CCN(CC(O)COc2ccc(Cl)c(Cl)c2)C1 (centres unmarked) [CU251]
5 uM Avg Cell # Score [1, 5]: 108 | 25 uM Avg Cell # Score [1, 6]: 101 | 5 uM Avg Antibacterial Score [2, 7]: 100 | 25 uM Avg Antibacterial Score [2, 8]: 103
